A melting point compilation (Tetko et al.; mined from patent text by program, amines drawn as free bases though some values may be those of a salt)

SMILES	melting point
CC(=NO)C(C)(C)NCCN(C)NC(C)(C)C(C)=NO	130 to 131 °C
N#Cc1c(N2CCCCC2)cc(-c2ccc(-n3cccc3)cc2)c2c1Cc1ccccc1-2	224 to 226 °C
O=C(c1ccc(F)cc1F)N1Cc2cccnc2Nc2ccccc21	161 to 163 °C
C=C(c1ccc(C(=O)N(C)OC)cc1)C(O)(Cn1cncn1)c1ccc(F)cc1F (configuration not stated)	154 to 156 °C
CCCC1CCC(C2CCC(C3CCCC(=O)C3)CC2)CC1 (configuration not stated)	1.5 °C
CC(C)CC1CCN(CCc2ccccc2)C1=O (configuration not stated)	69 to 71 °C
O=C1CC[C@@H](C(=O)Nc2ccc(-c3ncc(C(=O)O)c(O)n3)cc2)N1	> 300 °C
CCN1CCCOc2ccc(Nc3ncc(Cl)c(Nc4ccsc4C(=O)NC)n3)cc21	153 to 155 °C
Nc1ccc(CN2CCN(c3ccc(F)cc3)CC2)cc1	130 to 132 °C
N#Cc1nn(-c2c(Cl)cc(C(F)(F)F)cc2Cl)cc1C=NO	170 °C
COc1ccc(C2(C#Cc3cccc(-c4nnc(C)o4)c3)CCC(=O)CC2)cc1OC1CCCC1	139 to 141 °C
COC(=O)c1cn(C)cn1	72.5 to 81 °C
CC(C)c1ccc(C(=O)NC(C)c2ccc(Br)s2)cc1 (configuration not stated)	108 °C

Other lines, results leading:

melting point	SMILES
270 to 272 °C	Oc1cc(Br)c2oc(-c3cc(F)c(O)c(F)c3)nc2c1
94 to 99 °C	Fc1ccccc1CC[C@H]1CNCCN1
60 to 63 °C	CC(=O)OCc1cccc([N+](=O)[O-])c1Br
212 to 214 °C	CN(C)C(=O)N[C@H]1CC[C@H](CCN2CCN(c3cccc(Cl)c3Cl)CC2)CC1
95 to 97 °C	CCOCn1c(Sc2ccc(Cl)c(Cl)c2)cc(C#N)c1-c1ccc(Cl)cc1
143 to 144 °C	c1ccc(-c2ccc(-c3nc4n(n3)CCc3ccccc3-4)cc2)cc1
106 to 108 °C	CS(C)=Nc1nccnc1Cl
227 to 228 °C	Cc1ccc(NC(=O)c2ccc3ncccc3c2)cc1NC(=O)c1ccc(OCc2ccccc2)cc1
143 to 145 °C	Cc1nn(C)c(C2=NCCN2)c1[N+](=O)[O-]
142 to 143 °C	CCCCOc1ccc(NC(=O)NCC2(c3ccccc3)CCCCC2)cc1
33 to 36 °C	N#Cc1cccc(-n2ccc3ccccc32)c1
150 °C	O=C(O)c1c(Cl)nc(Cl)nc1Cl
129 to 130 °C	CCn1ncc2c1ncc1c(OC(C)C)nc3cc(C)nn3c12
168 to 169 °C	COC(=O)c1nn(Cc2ccccc2)c2c1CCc1cc(OCc3ccccc3)ccc1-2
